Test results taken from PubChem BioAssay (NCI).
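Five concentrations, 48 hours, 96-well plates. GI50 marks 50% less growth. The concentration for full growth arrest is given as TGI.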

What was measured:
Experiment in all cases: NCI anticancer screen, dose series, 48 h
OVCAR-8 ovarian = system: OVCAR-8 ovarian
SK-MEL-5 melanoma = system: SK-MEL-5 melanoma
NCI-H23 lung = system: NCI-H23 lung
HCT-116 colon = system: HCT-116 colon
SR leukemia = system: SR leukemia
HL-60(TB) leukemia = system: HL-60(TB) leukemia
ACHN renal = system: ACHN renal
HOP-62 NSCLC = system: HOP-62 NSCLC
IGROV1 ovarian = system: IGROV1 ovarian
HCT-15 colon = system: HCT-15 colon
NCI-H460 lung = system: NCI-H460 lung

Row | SMILES | TGI (OVCAR-8 ovarian) [µM] | TGI (SK-MEL-5 melanoma) [µM] | TGI (NCI-H23 lung) [µM] | TGI (HCT-116 colon) [µM] | TGI (SR leukemia) [µM] | TGI (HL-60(TB) leukemia) [µM] | TGI (ACHN renal) [µM] | TGI (HOP-62 NSCLC) [µM] | TGI (IGROV1 ovarian) [µM] | TGI (HCT-15 colon) [µM] | TGI (NCI-H460 lung) [µM] | GI50 (OVCAR-8 ovarian) [µM] | GI50 (SK-MEL-5 melanoma) [µM] | GI50 (NCI-H23 lung) [µM] | GI50 (HCT-116 colon) [µM] | GI50 (NCI-H460 lung) [µM] | GI50 (HOP-62 NSCLC) [µM] | GI50 (ACHN renal) [µM]
1 | N#CC12Cc3cc4c(cc3-c3cccc(c31)CCN2C(=O)c1ccccc1)OCO4 (stereo not given) | > 100 | > 100 | > 100 | > 100 | > 100 | > 100 | > 100 | > 100 | > 100 | – | – | – | – | – | – | – | – | –
2 | Clc1ccccc1/C=c1\nc(-c2ccccc2)n2c1nc1ccccc12 | > 100 | > 100 | 47.8 | > 100 | – | > 100 | > 100 | 50.3 | > 100 | > 100 | > 100 | – | – | – | – | – | – | –
3 | CC(C)(C)OC(=O)NC(CCCCNC(=O)OCc1ccccc1)C(=O)NCCNc1ccc(NCCNC(=O)C(CCCCNC(=O)OCc2ccccc2)NC(=O)OC(C)(C)C)c2c1C(=O)c1ccccc1C2=O (stereo not given) | > 78.1 | > 100 | > 100 | > 75.1 | > 100 | – | > 100 | > 74.3 | > 100 | > 100 | > 100 | – | – | – | – | – | – | –
4 | COc1ccc(C(=O)C2=NON3OC23C(=O)c2ccc(OC)cc2)cc1 (stereo not given) | 21 | 29.3 | 17.8 | 19.6 | – | – | 31.3 | > 100 | 27.3 | 36.6 | 40 | – | – | – | – | – | – | –
5 | O=C(O[C@@H](/C=C/c1ccccc1)P1(=O)N(Cc2ccccc2)[C@H]2CCCC[C@@H]2N1Cc1ccccc1)c1ccccc1 | > 100 | 3.67 | 36 | > 100 | 13.8 | 7.66 | 6.91 | 10.8 | > 100 | > 100 | 5.26 | – | – | – | – | – | – | –
6 | O=c1[nH]c(Nc2ccc(Cl)c(C(F)(F)F)c2)nc2nc[nH]c12 | > 100 | > 100 | > 100 | > 100 | – | – | > 100 | > 100 | > 100 | > 100 | > 100 | – | – | – | – | – | – | –
7 | CN(C)c1ccc(C=Nc2ccc(-c3nc4ccccc4[nH]3)cc2)cc1 | > 100 | > 100 | > 100 | > 100 | 65.1 | 53.3 | > 100 | > 100 | > 100 | > 100 | > 100 | – | – | – | – | – | – | –
8 | COCC1CCCN1c1ccc(C=N/C(C#N)=C(\N)C#N)cc1 (stereo not given) | > 100 | > 100 | > 100 | > 100 | – | – | – | > 100 | – | – | > 100 | 45.3 | 98.2 | > 100 | 9.19 | > 100 | 43.6 | –
9 | OCc1cn(C(c2ccccc2)(c2ccccc2)c2ccccc2)cn1 | > 100 | > 100 | > 100 | > 100 | > 100 | > 100 | > 100 | > 100 | > 100 | > 100 | > 100 | – | – | – | – | – | – | –
10 | c1ccc(-c2nnn3c2NC2=C(CCCC2)C3c2ccccc2)cc1 (stereo not given) | 5.44 | 30.1 | 69.4 | 24.3 | 31.1 | 37.2 | 3.09 | 39.2 | 40.2 | 3.04 | 52.8 | – | – | – | – | – | – | –
11 | COc1c(CC=C(C)C)c(O)c(C(CC(C)C)c2c(O)c3c(c(C(C)=O)c2O)OC(C(C)(C)O)C3)c(O)c1C(C)=O (stereo not given) | > 12.5 | 4.44 | 8.9 | > 12.5 | 6.93 | 7.55 | > 12.5 | > 12.5 | > 12.5 | > 12.5 | – | – | – | – | – | – | – | –
12 | OC(c1ccccc1)(c1ccccc1)c1nccc2ccccc12 | > 100 | 27 | 89.5 | 97 | > 100 | > 100 | > 100 | 43.2 | > 100 | > 100 | 43.7 | – | – | – | – | – | – | –
13 | CC(O)(Cc1ccccc1C#N)Cc1ccccc1C#N | > 100 | > 100 | – | > 100 | > 100 | 97.7 | > 100 | > 100 | > 100 | > 100 | > 100 | – | – | – | – | – | – | –
14 | CC(=O)OC1CC[C@@]2(C)C(=CC[C@@H]3[C@@H]2CC[C@]2(C)Nc4nn(S(C)(=O)=O)cc4C[C@@H]32)C1 (stereo not given in full) | > 100 | 28.4 | > 100 | – | > 100 | – | – | > 100 | > 100 | 89.4 | 72.5 | – | – | – | – | – | – | –
15 | Cc1coc2c1C[C@@]1(C)[C@H](CCC[C@@H]1C)[C@H]2O | > 100 | 28.9 | > 100 | > 100 | 64.8 | 44.6 | 78.3 | 75.1 | 65.4 | > 100 | > 100 | – | – | – | – | – | – | –
16 | COCCNCc1ccc(-c2cc3nccc(Oc4ccc(NC(=S)NC(=O)Cc5ccc(F)cc5)cc4F)c3s2)nc1 | 5.12 | – | 4.63 | – | – | – | 4.54 | – | – | – | – | 2.17 | – | 1.51 | – | – | – | 1.97
17 | O=C(O)c1ccc(C(=O)c2ccccc2C(=O)O)cc1C(=O)O | > 100 | > 100 | > 100 | > 100 | > 100 | > 100 | > 100 | > 100 | > 100 | > 100 | > 100 | – | – | – | – | – | – | –
18 | CCOC(=O)C(/C(=N/S(=O)(=O)c1cc(C)c(Cl)cc1[S-])[n+]1ccc(N(C)C)cc1)=C(/O)c1ccc([N+](=O)[O-])cc1 | > 100 | > 100 | – | 36.7 | > 100 | 64.5 | 71.6 | 78.7 | > 100 | > 100 | > 100 | – | – | – | – | – | – | –
